{
  "source": "patent US20250382344A1",
  "about": "“Soluble GLP1/GIP/NPY2 Receptor Triple Agonists” (Boehringer Ingelheim International GmH, priority 2024, published 2025)",
  "key": {"[1]": {"experiment": "Solubility in 0.1 M phosphate buffer at pH 7", "format": "physicochemical", "settings": "0.1 M phosphate buffer at pH 7, 10 mg/mL final peptide concentration, shaking 2 hours at room temperature, peptides as TFA-salts; measured sample pH 6.5-7.0"}, "hGIPR": {"biological_target": "T1, hGIPR (Homo sapiens, UniProt P48546)", "T1 construct": "expressed in transfected cells; host or cells: CHO CRE-luciferase reporter cells", "T1 sequence (P48546 22-466)": "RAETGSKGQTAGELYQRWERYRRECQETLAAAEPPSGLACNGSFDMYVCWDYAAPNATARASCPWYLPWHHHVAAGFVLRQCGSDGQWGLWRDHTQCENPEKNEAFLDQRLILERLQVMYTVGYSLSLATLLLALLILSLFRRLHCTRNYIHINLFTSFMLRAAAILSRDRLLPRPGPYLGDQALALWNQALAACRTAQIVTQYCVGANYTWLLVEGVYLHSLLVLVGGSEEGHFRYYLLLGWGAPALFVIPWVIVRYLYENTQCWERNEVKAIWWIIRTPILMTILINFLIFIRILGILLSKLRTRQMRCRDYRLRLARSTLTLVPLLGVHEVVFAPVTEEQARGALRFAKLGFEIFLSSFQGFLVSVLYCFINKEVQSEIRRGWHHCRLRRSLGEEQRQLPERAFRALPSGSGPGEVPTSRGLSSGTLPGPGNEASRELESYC", "experiment": "hGIPR CreLuc assay in 0.5% and 100% plasma (CHO CRE-luciferase reporter cells)", "format": "cell-based"}, "[2]": {"settings": "0.5% human plasma, read-out: hGIPR 0.5% hP"}},
  "note": "Where two headings read alike, the source gives them in different places.",
  "data": [
    {"smiles": "CC[C@H](C)[C@H](NC(=O)[C@H](CC(C)C)NC(=O)[C@H](Cc1c[nH]cn1)NC(=O)[C@H](CCCNC(=N)N)NC(=O)[C@@H](NC(=O)[C@H](Cc1ccccc1)NC(=O)[C@H](C)NC(=O)C(C)(C)NC(=O)[C@H](CCC(N)=O)NC(=O)[C@H](C)NC(=O)[C@H](CCC(N)=O)NC(=O)[C@H](CCCCN)NC(=O)[C@H](CCC(=O)O)NC(=O)[C@H](CC(C)C)NC(=O)C(C)(C)NC(=O)[C@@H](NC(=O)[C@H](CO)NC(=O)[C@H](CC(C)C)NC(=O)[C@H](CC(=O)O)NC(=O)[C@H](CO)NC(=O)[C@@H](NC(=O)[C@H](Cc1ccccc1)NC(=O)[C@@H](NC(=O)CNC(=O)[C@H](CCC(=O)O)NC(=O)C(C)(C)NC(=O)[C@@H](N)Cc1ccc(O)cc1)[C@@H](C)O)[C@@H](C)O)[C@@H](C)CC)C(C)C)C(=O)N[C@@H](CC(N)=O)C(=O)N[C@@H](CCCCNC(=O)CC[C@H](NC(=O)[C@@H](N)CCCCNC(=O)CC[C@H](NC(=O)CC[C@H](NC(=O)CC[C@H](NC(=O)CC[C@H](NC(=O)CC[C@H](NC(=O)CCCCCCCCCCCCCCCCCCC(=O)O)C(=O)O)C(=O)O)C(=O)O)C(=O)O)C(=O)O)C(=O)O)C(=O)NC(C)(C)C(=O)N[C@H](C(=O)N[C@@H](CCCNC(=N)N)C(=O)N[C@@H](CCC(N)=O)C(=O)N[C@@H](CCCNC(=N)N)C(=O)N[C@@H](Cc1ccc(O)cc1)C(N)=O)[C@@H](C)O", "note": "[Compound 60, Y-Aib-E-G-T-F-T-S-D-L-S-I-Aib-L-E-K-Q-A-Q-Aib-A-F-V-R-H-L-I-N-K(1,3)-Aib-T-R-Q-R-Y-NH2.C20DA-gGlu-gGlu-gGlu-gGlu-gGlu-eLys-gGlu(1,2)]", "values": [
      {"measurement": "solubility at 2 h", "setting": "[1]", "value": 9600, "unit": "µg/mL"},
      {"measurement": "EC50", "setting": "hGIPR; hGIPR 0.5% hP (nM), 0.5% human plasma", "value": 0.3, "unit": "nM"},
      {"measurement": "EC50", "setting": "hGIPR; hGIPR 100% hP (nM), 100% human plasma", "value": 8, "unit": "nM"}
    ]},
    {"smiles": "CC[C@H](C)[C@H](NC(=O)[C@H](CC(C)C)NC(=O)[C@H](Cc1c[nH]cn1)NC(=O)[C@H](CCCNC(=N)N)NC(=O)[C@@H](NC(=O)[C@H](Cc1ccccc1)NC(=O)[C@H](C)NC(=O)[C@H](C)NC(=O)[C@H](CCC(N)=O)NC(=O)[C@H](C)NC(=O)[C@H](CCC(N)=O)NC(=O)[C@H](CCCCN)NC(=O)[C@H](CCC(=O)O)NC(=O)[C@H](CC(C)C)NC(=O)C(C)(C)NC(=O)[C@@H](NC(=O)[C@H](CO)NC(=O)[C@H](Cc1ccc(O)cc1)NC(=O)[C@H](CC(=O)O)NC(=O)[C@H](CO)NC(=O)[C@@H](NC(=O)[C@H](Cc1ccccc1)NC(=O)[C@@H](NC(=O)CNC(=O)[C@H](CCC(=O)O)NC(=O)C(C)(C)NC(=O)[C@@H](N)Cc1ccc(O)cc1)[C@@H](C)O)[C@@H](C)O)[C@@H](C)CC)C(C)C)C(=O)N[C@@H](CC(N)=O)C(=O)N[C@@H](CCCCNC(=O)[C@@H](N)CCCCNC(=O)CC[C@H](NC(=O)CC[C@H](NC(=O)CC[C@H](NC(=O)CC[C@H](NC(=O)CC[C@H](NC(=O)CC[C@H](NC(=O)CCCCCCCCCCCCCCCCC(=O)O)C(=O)O)C(=O)O)C(=O)O)C(=O)O)C(=O)O)C(=O)O)C(=O)NC(C)(C)C(=O)N[C@H](C(=O)N[C@@H](CCCNC(=N)N)C(=O)N[C@@H](CCC(N)=O)C(=O)N[C@@H](CCCNC(=N)N)C(=O)N[C@@H](Cc1ccc(O)cc1)C(N)=O)[C@@H](C)O", "note": "[Compound 61, Y-Aib-E-G-T-F-T-S-D-Y-S-I-Aib-L-E-K-Q-A-Q-A-A-F-V-R-H-L-I-N-K(1,3)-Aib-T-R-Q-R-Y-NH2.C18DA-gGlu-gGlu-gGlu-gGlu-gGlu-gGlu-eLys(1,2)]", "values": [
      {"measurement": "solubility at 2 h", "setting": "[1]", "value": 3700, "unit": "µg/mL"},
      {"measurement": "EC50", "setting": "hGIPR; [2]", "value": 0.4, "unit": "nM"}
    ]},
    {"smiles": "CC[C@H](C)[C@H](NC(=O)[C@H](CC(C)C)NC(=O)[C@H](Cc1c[nH]cn1)NC(=O)[C@H](CCCNC(=N)N)NC(=O)[C@@H](NC(=O)[C@H](Cc1ccccc1)NC(=O)[C@H](C)NC(=O)C(C)(C)NC(=O)[C@H](CCC(N)=O)NC(=O)[C@H](C)NC(=O)[C@H](CCC(N)=O)NC(=O)[C@H](CC(C)C)NC(=O)[C@H](CCC(=O)O)NC(=O)[C@H](CC(C)C)NC(=O)C(C)(C)NC(=O)[C@@H](NC(=O)[C@H](CO)NC(=O)[C@H](Cc1ccc(O)cc1)NC(=O)[C@H](CC(=O)O)NC(=O)[C@H](CO)NC(=O)[C@@H](NC(=O)[C@H](Cc1ccccc1)NC(=O)[C@@H](NC(=O)CNC(=O)[C@H](CCC(=O)O)NC(=O)C(C)(C)NC(=O)[C@@H](N)Cc1ccc(O)cc1)[C@@H](C)O)[C@@H](C)O)[C@@H](C)CC)C(C)C)C(=O)N[C@@H](CC(N)=O)C(=O)N[C@@H](CCCCNC(=O)[C@@H](N)CCCCNC(=O)CC[C@H](NC(=O)CC[C@H](NC(=O)CC[C@H](NC(=O)CC[C@H](NC(=O)CC[C@H](NC(=O)CC[C@H](NC(=O)CCCCCCCCCCCCCCCCC(=O)O)C(=O)O)C(=O)O)C(=O)O)C(=O)O)C(=O)O)C(=O)O)C(=O)NC(C)(C)C(=O)N[C@H](C(=O)N[C@@H](CCCNC(=N)N)C(=O)N[C@@H](CCC(N)=O)C(=O)N[C@@H](CCCNC(=N)N)C(=O)N[C@@H](Cc1ccc(O)cc1)C(N)=O)[C@@H](C)O", "note": "[Compound 65, Y-Aib-E-G-T-F-T-S-D-Y-S-I-Aib-L-E-L-Q-A-Q-Aib-A-F-V-R-H-L-I-N-K(1,3)-Aib-T-R-Q-R-Y-NH2.C18DA-gGlu-gGlu-gGlu-gGlu-gGlu-gGlu-eLys(1,2)]", "values": [
      {"measurement": "solubility at 2 h", "setting": "[1]", "value": 3900, "unit": "µg/mL"},
      {"measurement": "EC50", "setting": "hGIPR; [2]", "value": 0.7, "unit": "nM"}
    ]},
    {"smiles": "CC[C@H](C)[C@H](NC(=O)[C@H](CC(C)C)NC(=O)[C@H](Cc1c[nH]cn1)NC(=O)[C@H](CCCNC(=N)N)NC(=O)[C@@H](NC(=O)[C@H](Cc1ccccc1)NC(=O)[C@H](C)NC(=O)C(C)(C)NC(=O)[C@H](CCC(N)=O)NC(=O)[C@H](C)NC(=O)[C@H](CCC(N)=O)NC(=O)[C@H](CCCCN)NC(=O)[C@H](CCC(=O)O)NC(=O)[C@H](CC(C)C)NC(=O)C(C)(C)NC(=O)[C@@H](NC(=O)[C@H](CO)NC(=O)[C@H](Cc1ccc(O)cc1)NC(=O)[C@H](CC(=O)O)NC(=O)[C@H](CO)NC(=O)[C@@H](NC(=O)[C@H](Cc1ccccc1)NC(=O)[C@@H](NC(=O)CNC(=O)[C@H](CCC(=O)O)NC(=O)C(C)(C)NC(=O)[C@@H](N)Cc1ccc(O)cc1)[C@@H](C)O)[C@@H](C)O)[C@@H](C)CC)C(C)C)C(=O)N[C@@H](CC(N)=O)C(=O)N[C@@H](CCCCNC(=O)[C@@H](N)CCCCNC(=O)CC[C@H](NC(=O)CC[C@H](NC(=O)CC[C@H](NC(=O)CC[C@H](NC(=O)CC[C@H](NC(=O)CC[C@H](NC(=O)CCCCCCCCCCCCCCCCC(=O)O)C(=O)O)C(=O)O)C(=O)O)C(=O)O)C(=O)O)C(=O)O)C(=O)N[C@H](C(=O)N[C@H](C(=O)N[C@@H](CCCNC(=N)N)C(=O)N[C@@H](CCC(N)=O)C(=O)N[C@@H](CCCNC(=N)N)C(=O)N[C@@H](Cc1ccc(O)cc1)C(N)=O)[C@@H](C)O)[C@@H](C)CC", "note": "[Compound 66, Y-Aib-E-G-T-F-T-S-D-Y-S-I-Aib-L-E-K-Q-A-Q-Aib-A-F-V-R-H-L-I-N-K(1,3)-I-T-R-Q-R-Y-NH2.C18DA-gGlu-gGlu-gGlu-gGlu-gGlu-gGlu-eLys(1,2)]", "values": [
      {"measurement": "solubility at 2 h", "setting": "[1]", "value": 5000, "unit": "µg/mL"},
      {"measurement": "EC50", "setting": "hGIPR; [2]", "value": 0.2, "unit": "nM"}
    ]}
  ]
}
